US7074824B2, “Pharmaceutical compositions containing beta-lapachone, or derivatives or analogs thereof, and methods of using same” (Arqule, Inc., priority 2001, dated 2006)

Key:
[1] = Relative solubility of 14C-labeled β-lapachone in aqueous solutions of solubilizing agents; format: physicochemical
Description: In light of the above, two different strategies were used to enhance β-lapachone solubility in aqueous solution. First, β-lapachone was treated with metal chelating agents, such as calcium and magnesium, to form soluble complexes; second, β-lapachone was treated with the solubilizing agents β-cyclodextrin and γ-cyclodextrin to form soluble inclusion complexes. In order to evaluate these four reagents, ^14C-labeled β-lapachone in a small volume of ethanol was added to aqueous solutions of the reagents (or to PBS buffer as a control), then the relative solubility of β-lapachone in each of the solutions was measured in terms of radioactivity remaining in the supernatant after centrifugation.
Specifically, to individual 1.5 ml Eppendorf tubes containing 900 μl of PBS buffer were added the following: 8 mM CaCl2 in PBS buffer, 8 mM of MgCl2 in PBS buffer, 8 mM β-cyclodextrin in PBS buffer, and 8 mM γ-cyclodextrin in PBS buffer. 10 μl of C^14 labeled β-lapachone (40,000 CPM, 0.55 μg) in 75% ethanol was then added to each tube. After vortexing and centrifuging at 13,000 rpm for 10 min, 100 μl of the supernatant solution was counted for radioactivity using a Beckman Scintillation Counter. […] After vortexing and centrifuging at 13,000 rpm for 10 min, 100 μl of the supernatant solution was counted again for radioactivity. […]

[2] = system: A2780DDP
Description: In testing β-lapachone against the cisplatin-resistant-cell lines, cells were exposed to β-lapachone solutions for 4 h. The cells were then rinsed and fresh medium was added. Cultures were observed daily for 10–20 days and then were fixed and stained. Colonies of greater than 30 cells were scored as survivors.

[3] = molecular target: T1, human DNA Topoisomerases I (Homo sapiens, UniProt P11387); conditions: cited from earlier work
T1 sequence (P11387 1-765): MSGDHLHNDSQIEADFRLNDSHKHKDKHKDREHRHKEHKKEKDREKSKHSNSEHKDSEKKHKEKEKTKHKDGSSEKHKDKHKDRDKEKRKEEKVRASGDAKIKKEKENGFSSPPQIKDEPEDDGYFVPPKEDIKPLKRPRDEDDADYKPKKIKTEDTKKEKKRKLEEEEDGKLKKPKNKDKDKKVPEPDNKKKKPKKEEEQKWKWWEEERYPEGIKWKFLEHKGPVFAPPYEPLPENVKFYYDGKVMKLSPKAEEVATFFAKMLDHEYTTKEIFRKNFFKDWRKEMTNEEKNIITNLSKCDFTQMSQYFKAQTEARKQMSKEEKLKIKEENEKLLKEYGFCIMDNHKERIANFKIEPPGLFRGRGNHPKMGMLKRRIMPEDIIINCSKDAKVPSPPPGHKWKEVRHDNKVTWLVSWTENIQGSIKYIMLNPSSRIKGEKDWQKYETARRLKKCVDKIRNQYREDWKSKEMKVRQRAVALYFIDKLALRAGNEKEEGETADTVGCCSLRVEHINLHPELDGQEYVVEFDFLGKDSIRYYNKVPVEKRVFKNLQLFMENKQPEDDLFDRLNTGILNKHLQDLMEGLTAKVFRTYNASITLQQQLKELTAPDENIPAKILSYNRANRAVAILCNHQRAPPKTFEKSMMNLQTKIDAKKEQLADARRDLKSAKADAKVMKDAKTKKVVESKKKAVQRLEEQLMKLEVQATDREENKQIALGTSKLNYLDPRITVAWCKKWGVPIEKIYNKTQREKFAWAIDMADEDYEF

With `CC1(C)CCC2=C(O1)c1ccccc1C(=O)C2=O` [β-lapachone] as the compound, how does the “β-lapachone present in the supernatant” value ([1]; 0.5 μg β-lapachone added, all five aqueous solutions (PBS, CaCl2, MgCl2, β-cyclodextrin, γ-cyclodextrin)) read?
Its value is ~100%.

And the “β-lapachone retained in the supernatant” value ([1]; 600 μg β-lapachone added, 8 mM β-cyclodextrin in PBS buffer (only this solution))?
The value was “more than 50%”.

What about the “cytotoxicity as single agent, resistant versus parent line” value [2] of the same compound?
The value was “equally cytotoxic”.

What about the in vitro inhibition [3] of the same compound?
The in vitro inhibition was “potent in vitro inhibition”.
